From the NIST ThermoML archive (doi:10.1021/je500380x)

Assay: mn = molality of the nth substance listed, in mol/kg
Settings: 100 kPa, Liquid; for electrical conductivity: Alternating current cell with electrodes; for viscosity: Falling or rolling sphere viscometry; for mass density: Vibrating tube method

CCC(=O)OCCN1CCNCC1 [2-(piperazin-1-yl)ethyl propionate] + CCO
Settings | electrical conductivity, 318.15 K [S/m] | electrical conductivity, 323.15 K [S/m] | mass density, 318.15 K [kg/m3] | mass density, 323.15 K [kg/m3] | viscosity, 318.15 K [mPa·s] | viscosity, 323.15 K [mPa·s]
m1 = 0.05 | – | 0.0198 | 770.48 | 765.98 | 0.787 | 0.725
m1 = 0.1 | – | 0.0331 | 773.2 | 768.7 | 0.82 | 0.755
m1 = 0.1985 | – | 0.0536 | 778.55 | 774.05 | 0.86 | 0.79
m1 = 0.3005 | – | 0.0711 | 784.23 | 779.73 | 0.916 | 0.84
m1 = 0.4001 | – | 0.0856 | 789.7 | 785.21 | 0.972 | 0.889
m1 = 0.5007 | – | 0.1004 | 795.39 | 790.92 | 1.043 | 0.951
m1 = 0.5998 | – | 0.1131 | 800.91 | 796.46 | 1.113 | 1.014
m1 = 0.7002 | – | 0.1239 | 806.67 | 802.23 | 1.194 | 1.086
m1 = 0.8 | – | 0.137 | 812.45 | 808.02 | 1.299 | 1.178
m1 = 0.8957 | – | 0.146 | 818.24 | 813.82 | 1.381 | 1.251
m1 = 1 | – | 0.159 | 824.21 | 819.82 | 1.492 | 1.348
m1 = 1.198 | – | 0.178 | 835.97 | 831.61 | 1.741 | 1.567
m1 = 1.401 | – | 0.196 | 848.63 | 844.32 | 2.071 | 1.855
m1 = 1.602 | – | 0.209 | 860.7 | 856.43 | 2.503 | 2.446
m1 = 1.8 | – | 0.222 | 873.18 | 868.95 | 3.057 | 2.713
m1 = 2.001 | 0.211 | 0.231 | 886.65 | 882.65 | 3.912 | 3.443
m1 = 2.198 | 0.214 | 0.237 | 898.68 | 894.55 | 4.647 | 4.068
m1 = 2.397 | 0.212 | 0.236 | 912.04 | 907.95 | 5.859 | 5.091
m1 = 2.597 | 0.207 | 0.232 | 925.4 | 921.36 | 8.129 | 6.903
m1 = 2.796 | 0.199 | 0.224 | 938.75 | 934.75 | 10.27 | 8.728
m1 = 3.006 | 0.188 | 0.213 | 953.35 | 949.41 | 14.2 | 12.02
